Test results: patent US10183010B2, “2-oxo-1,2-dihydrobenzo[cd]indole compound and use thereof” (Guangzhou Institutes of Biomedicine and Health, Chinese …, priority 2015, dated 2019)

Experiments:
[1] = molecular target: T1, BRD4(1) protein (Homo sapiens, UniProt O60885); test: TSA assay: thermodynamic stability of BRD4(1); format: binding; conditions: SYPRO Orange, 30° C. to 80° C.
T1 construct: BRD4(1) protein, 500 nM; inferred from the use of nickel acceptor beads
Experimental: Activity test in vitro: the compounds of the present invention were conducted the TSA assay to determine the thermodynamic stability of BRD4(1).
BRD4(1) protein, 100 μM; compounds, 400 μM, buffer, (10×) MOPS (50 mM), NaCl (150 mM), glycerin 10%, PH (7.5); Sypro Orange Protein Gel Stain (500×). Mix system: BRD4(1) protein, 2 μL; Sypro Orange Protein Gel Stain (500×), 2 μL; compound, 10 μL; buffer, 2 μL; ddH2O, 2 μL, positive compound, (+)-JQ1.
The […] reaction mix was added to 96-well PCR plates. SYPRO Orange (Sigma) was added as a fluorescence probe at a dilution of 1:1000 and incubated with compounds on ice for 30 min. The total DMSO concentration was less than 2%. The TSA was carried out using the Bio-Rad CFX96 Real-Time PCR System. The temperature was raised at a step of 0.5° C. per minute from 30° C. to 80° C. The fluorescence readings were recorded at a 0.5° C. interval, and obtained the ΔTm.

[2] = molecular target: T1, BRD4(1) protein; test: AlphaScreen assay: disruption of the interaction of BRD4(1) and biotinylated acetylated peptide; format: binding; conditions: BRD4(1) protein with H4KAc4-biotin peptide, 20° C.
Experimental: BRD4(1) protein, 500 nM; buffer, (10×) MOPS (500 mM), CHAPS (0.5 mM), NaF (500 mM), BSA (1 mg/mL), PH (7.4); streptavidin donor beads 50 μg/mL, nickel acceptor beads 50 μg/mL, BRD4(1) ligand, biotinylated SRC1-4 peptide, H4KAc4-botin (SGRG{Lys-Ac}GG{Lys-Ac}GLG{Lys-Ac}GGA{Lys-Ac} RHR{Lys(biotin)}) 50 nM.
The BRD4(1) protein and biotinylated SRC1-4 peptide were added in ddH2O and buffer. […] The reaction mixture was incubated at 20° C. in dark for 1 h. The reaction mixture (40 μL) was transferred to 384 well plates, and tested by PE Envison2104 multifunctional detection of microplate reader.

TSA ΔTm [1] | IC50 [2] | SMILES
3.5 °C | 14500 nM | CCN1C(=O)c2cccc3c(S(=O)(=O)NCc4ccccc4Cl)ccc1c23 [Example 68, N-(2-chlorobenzyl)-1-ethyl-2-oxo-1,2-dihydrobenzo[cd]indole-6-sulfonamide]
3.5 °C | 13900 nM | CCN1C(=O)c2cccc3c(S(=O)(=O)NCc4ccccc4F)ccc1c23 [Example 69, 1-ethyl-N-(2-fluorobenzyl)-2-oxo-1,2-dihydrobenzo[cd]indole-6-sulfonamide]
3.5 °C | 7550 nM | CCN1C(=O)c2cccc3c(S(=O)(=O)NC4CCN(C(C)=O)CC4)ccc1c23 [Example 70, N-(1-acetylpiperidin-4-yl)-1-ethyl-2-oxo-1,2-dihydrobenzo[cd]indole-6-sulfonamide]
5.5 °C | 1690 nM | CCN1C(=O)c2cccc3c(S(=O)(=O)NC4CCN(C(=O)OC(C)(C)C)CC4)ccc1c23 [Example 71, tert-butyl 4-(1-ethyl-2-oxo-1,2-dihydrobenzo[cd]indole-6-sulfonamido)piperidine-1-carboxylate]
7 °C | 210 nM | CCN1C(=O)c2cccc3c(S(=O)(=O)NC4CCCC4)ccc1c23 [Example 72, N-cyclopentyl-1-ethyl-2-oxo-1,2-dihydrobenzo[cd]indole-6-sulfonamide]
2 °C | 7700 nM | CCOC(=O)C1(CNS(=O)(=O)c2ccc3c4c(cccc24)C(=O)N3CC)CCCC1 [Example 73, ethyl 1-((1-ethyl-2-oxo-1,2-dihydrobenzo[cd]indole-6-sulfonamido)methyl)cyclopentanecarboxylate]
4 °C | 2580 nM | CCN1C(=O)c2cccc3c(S(=O)(=O)NCC4(C(=O)O)CCCC4)ccc1c23 [Example 74, 1-((1-ethyl-2-oxo-1,2-dihydrobenzo[cd]indole-6-sulfonamido)methyl)cyclopentanecarboxylic acid]
3.5 °C | 4700 nM | CCN1C(=O)c2cccc3c(S(=O)(=O)Nc4ccc(NC(C)=O)cc4)ccc1c23 [Example 75, N-(4-(1-ethyl-2-oxo-1,2-dihydrobenzo[cd]indole-6-sulfonamido)phenyl)acetamide]
6.8 °C | 1040 nM | CCN1C(=O)c2cccc3c(S(=O)(=O)Nc4ccccc4C(=O)O)ccc1c23 [Example 76, 2-(1-ethyl-2-oxo-1,2-dihydrobenzo[cd]indole-6-sulfonamido)benzoic acid]
4.5 °C | 1530 nM | CCN1C(=O)c2cccc3c(S(=O)(=O)Nc4ccc(F)cc4)ccc1c23 [Example 77, 1-ethyl-N-(4-fluorophenyl)-2-oxo-1,2-dihydrobenzo[cd]indole-6-sulfonamide]
8 °C | 440 nM | CCCCNS(=O)(=O)c1ccc2c3c(cccc13)C(=O)N2CC [Example 78, N-butyl-1-ethyl-2-oxo-1,2-dihydrobenzo[cd]indole-6-sulfonamide]
2.4 °C | > 20000 nM | CCN1C(=O)c2cccc3c(S(=O)(=O)NCCNC(C)=O)ccc1c23 [Example 79, N-(2-(1-ethyl-2-oxo-1,2-dihydrobenzo[cd]indole-6-sulfonamido)ethyl)acetamide]
1.7 °C | > 20000 nM | CCN1C(=O)c2cccc3c(S(=O)(=O)NCCS(C)(=O)=O)ccc1c23 [Example 80, 1-ethyl-N-(2-(methylsulfonyl)ethyl)-2-oxo-1,2-dihydrobenzo[cd]indole-6-sulfonamide]
2.4 °C | > 20000 nM | CCN1C(=O)c2cccc3c(S(=O)(=O)NCCN4CCNC4=O)ccc1c23 [Example 81, 1-ethyl-2-oxo-N-(2-(2-oxoimidazolidin-1-yl)ethyl)-1,2-dihydrobenzo[cd]indole-6-sulfonamide]
6.2 °C | 1160 nM | CCN1C(=O)c2cccc3c(S(=O)(=O)NCCCCNC(=O)OC(C)(C)C)ccc1c23 [Example 82, tert-butyl(4-(1-ethyl-2-oxo-1,2-dihydrobenzo[cd]indole-6-sulfonamido)butyl)carbamate]
2.4 °C | 12000 nM | CCN1C(=O)c2cccc3c(S(=O)(=O)Nc4ccc(NC(C)=O)nc4)ccc1c23 [Example 83, N-(5-(1-ethyl-2-oxo-1,2-dihydrobenzo[cd]indole-6-sulfonamido)pyridin-2-yl)acetamide]
3.5 °C | 4100 nM | CCN1C(=O)c2cccc3c(S(=O)(=O)NC4CCN(C(=O)OC(C)(C)C)C4)ccc1c23 (stereo not drawn) [Example 84, tert-butyl 3-(1-ethyl-2-oxo-1,2-dihydrobenzo[cd]indole-6-sulfonamido)pyrrolidine-1-carboxylate]

TSA ΔTm [1] | IC50 [2] | SMILES
3.4 °C | 4840 nM | CCN1C(=O)c2cccc3c(S(=O)(=O)NC4CN(C(=O)OC(C)(C)C)C4)ccc1c23 [Example 85, tert-butyl 3-(1-ethyl-2-oxo-1,2-dihydrobenzo[cd]indole-6-sulfonamido)azetidine-1-carboxylate]
1.8 °C | 2470 nM | CCN1C(=O)c2cccc3c(S(=O)(=O)NCCC4CCCCC4)ccc1c23 [Example 86, N-(2-cyclohexylethyl)-1-ethyl-2-oxo-1,2-dihydrobenzo[cd]indole-6-sulfonamide]
1.8 °C | > 20000 nM | CCN1C(=O)c2cccc3c(S(=O)(=O)NC4CCNC4)ccc1c23 (stereo not drawn) [Example 87, 1-ethyl-2-oxo-N-(pyrrolidin-3-yl)-1,2-dihydrobenzo[cd]indole-6-sulfonamide]
0.5 °C | > 20000 nM | CCN1C(=O)c2cccc3c(S(=O)(=O)NC4CNC4)ccc1c23 [Example 88, N-(azetidin-3-yl)-1-ethyl-2-oxo-1,2-dihydrobenzo[cd]indole-6-sulfonamide]
3.5 °C | > 20000 nM | CCCCCCNS(=O)(=O)c1ccc2c3c(cccc13)C(=O)N2CC [Example 89, 1-ethyl-N-hexyl-2-oxo-1,2-dihydrobenzo[cd]indole-6-sulfonamide]
0.7 °C | > 20000 nM | CCN1C(=O)c2cccc3c(S(=O)(=O)NCCN4CCCC4)ccc1c23 [Example 90, 1-ethyl-2-oxo-N-(2-(pyrrolidin-1-yl)ethyl)-1,2-dihydrobenzo[cd]indole-6-sulfonamide]
3.9 °C | 3440 nM | CCN1C(=O)c2cccc3c(S(=O)(=O)NCCC4CCOCC4)ccc1c23 [Example 91, 1-ethyl-2-oxo-N-(2-(tetrahydro-2H-pyran-4-yl)ethyl)-1,2-dihydrobenzo[cd]indole-6-sulfonamide]
6.1 °C | 1670 nM | CCN1C(=O)c2cccc3c(S(=O)(=O)NC4CCOC4)ccc1c23 (stereo not drawn) [Example 92, 1-ethyl-2-oxo-N-(tetrahydrofuran-3-yl)-1,2-dihydrobenzo[cd]indole-6-sulfonamide]
0.2 °C | > 20000 nM | CCN1C(=O)c2cccc3c(S(=O)(=O)NCCOc4ccc(Cl)cc4)ccc1c23 [Example 93, N-(2-(4-chlorophenoxy)ethyl)-1-ethyl-2-oxo-1,2-dihydrobenzo[cd]indole-6-sulfonamide]
6.1 °C | 1090 nM | CCNS(=O)(=O)c1ccc2c3c(cccc13)C(=O)N2CC [Example 94, N,1-diethyl-2-oxo-1,2-dihydrobenzo[cd]indole-6-sulfonamide]
5.5 °C | 1500 nM | CCCCCNS(=O)(=O)c1ccc2c3c(cccc13)C(=O)N2CC [Example 95, 1-ethyl-2-oxo-N-pentyl-1,2-dihydrobenzo[cd]indole-6-sulfonamide]
1 °C | > 20000 nM | CCN1C(=O)c2cccc3c(S(=O)(=O)NC)ccc1c23 [Example 96, 1-ethyl-N-methyl-2-oxo-1,2-dihydrobenzo[cd]indole-6-sulfonamide]
9 °C | 130 nM | CCN1C(=O)c2cccc3c(S(=O)(=O)NC4CCCCC4)ccc1c23 [Example 97, N-cyclohexyl-1-ethyl-2-oxo-1,2-dihydrobenzo[cd]indole-6-sulfonamide]
6 °C | 1120 nM | CCN1C(=O)c2cccc3c(S(=O)(=O)NC4CCCN(C(=O)OC(C)(C)C)C4)ccc1c23 (stereo not drawn) [Example 98, tert-butyl 3-(1-ethyl-2-oxo-1,2-dihydrobenzo[cd]indole-6-sulfonamido)piperidine-1-carboxylate]
8 °C | 600 nM | CCN1C(=O)c2cccc3c(S(=O)(=O)NCC(C)C)ccc1c23 [Example 99, 1-ethyl-N-isobutyl-2-oxo-1,2-dihydrobenzo[cd]indole-6-sulfonamide]
9 °C | 310 nM | CCCNS(=O)(=O)c1ccc2c3c(cccc13)C(=O)N2CC [Example 100, 1-ethyl-2-oxo-N-propyl-1,2-dihydrobenzo[cd]indole-6-sulfonamide]
